Here are results for eight compounds from patent publication US12583866B2, “Pyrido[2,3-b][1,4]oxazines or tetrahydropyrido[2,3-b][1,4]oxazepines as IAP antagonists” (BEIGENE, LTD., priority 2020, dated 2026).

For assay [1], the target named is T1, recombinant human cIAP1-BIR3 protein (Homo sapiens, UniProt Q13490).
T1 construct: recombinant human cIAP1-BIR3 protein; purchased Reaction biology APT-11-370
Description: Recombinant human c-IAP1-BIR3 biochemical assay (HTRF, peptide displacement). The note with it: 1.2 nM cIAP1-BIR3, 3 nM AbuRPF-K(5-Fam)-NH2 peptide, read-out: Protein binding IC50 (nM) c-IAP1. As to the method: I. Recombinant human c-IAP1-BIR3 biochemical assay
(§1) Compounds disclosed herein were tested for blocking of recombinant human cIAP1-BIR3 protein (Cat: APT-11-370, Reaction biology) with its peptide in an assay based on Homogeneous Time Resolved Fluorescence. 1.2 nM recombinant human cIAP1-BIR3 protein was pre-incubated with a serial dilution of compounds disclosed herein (maximum concentration is 10 uM, 4-fold serially diluted, 10 points) at room temperature for 1 hour in an assay buffer containing 20 mM HEPES, pH 7.5, 50 mM NaCl, 0.005% Tween-20, 1 mM DTT. Then 3 nM AbuRPF-K (5-Fam)-NH2 (Cat: 709702, GL Biochem) was added to plate incubated at room temperature for 1 hour. Mab Anti-6His Tb cryptate Gold (Cat: 61HI2TLB, Cisbio Bioassays) was added to plate and further incubated at room temperature for 1 hour. The HTRF signals (ex337 nm, em520 nm/490 nm) were read on BMG PHERAstar FS instrument. The inhibition percentage of cIAP1-BIR3 interaction with its peptide in presence of increasing concentrations of compounds was calculated based on the ratio of fluorescence at 520 nm to that at 490 nm. The IC50 for each compound was derived from fitting the data to the four-parameter logistic equation by Dotmatics and summarized in table 1.
A general note: TR-FRET usually uses a lanthanide donor and a delayed reading to cut background.

Assay [2] addresses T2, recombinant human cIAP2-BIR3 protein (Homo sapiens, UniProt Q13489).
T2 construct: recombinant human cIAP2-BIR3 protein; purchased Reaction biology APT-11-372
The assay can be described thus: Recombinant human c-IAP2-BIR3 biochemical assay (HTRF, peptide displacement). The note with it: 3.7 nM cIAP2-BIR3, 3.7 nM AbuRPF-K(5-Fam)-NH2 peptide, read-out: Protein binding IC50 (nM) c-IAP2. As to the method: II. Recombinant Human c-IAP2-BIR3 Biochemical Assay
as §1, with “human cIAP2-BIR3” for “human cIAP1-BIR3”, “(Cat: APT-11-372,” for “(Cat: APT-11-370,”, “Fluorescence. 3.7” for “Fluorescence. 1.2”, “Then 3.7” for “Then 3”, “nM AbuRPF-K(5-Fam)-NH2” for “nM AbuRPF-K (5-Fam)-NH2”, “of cIAP2-BIR3” for “of cIAP1-BIR3”

Assay [3] deals with T3, recombinant human XIAP-BIR3 protein (Homo sapiens, UniProt P98170).
T3 construct: recombinant human XIAP-BIR3 protein; purchased Reaction biology APT-11-374
The assay can be described thus: Recombinant human XIAP-BIR3 biochemical assay (HTRF, peptide displacement). The settings on record: 3.7 nM XIAP-BIR3, 7.6 nM AbuRPF-K(5-Fam)-NH2 peptide, read-out: Protein binding IC50 (nM) XIAP. As to the method: III. Recombinant Human XIAP-BIR3 Biochemical Assay
as §1, with “human XIAP-BIR3” for “human cIAP1-BIR3”, “(Cat: APT-11-374,” for “(Cat: APT-11-370,”, “Fluorescence. 3.7” for “Fluorescence. 1.2”, “Then 7.6” for “Then 3”, “nM AbuRPF-K(5-Fam)-NH2” for “nM AbuRPF-K (5-Fam)-NH2”, “of XIAP-BIR3” for “of cIAP1-BIR3”

T2 sequence (Q13489 238-349 limits assumed): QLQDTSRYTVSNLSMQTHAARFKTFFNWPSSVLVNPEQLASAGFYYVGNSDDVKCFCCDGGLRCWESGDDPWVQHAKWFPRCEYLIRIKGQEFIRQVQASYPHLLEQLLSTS
T1 sequence (Q13490 253-363 limits assumed): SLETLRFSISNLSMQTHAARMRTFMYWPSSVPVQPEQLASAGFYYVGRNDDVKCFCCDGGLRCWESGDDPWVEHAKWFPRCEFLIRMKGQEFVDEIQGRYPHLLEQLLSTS
T3 sequence (P98170 241-356 limits assumed): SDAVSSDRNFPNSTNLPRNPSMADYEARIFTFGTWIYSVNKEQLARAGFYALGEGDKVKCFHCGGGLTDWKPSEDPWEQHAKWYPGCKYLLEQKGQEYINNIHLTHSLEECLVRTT

Turning to `C[C@@H]1CN(CC(=O)N2CCOc3nc(O)c(Cc4ccc(F)cc4)cc32)[C@@H](CN2CCOC[C@H]2C)CN1` [Compound 9, 1-(7-(4-fluorobenzyl)-6-hydroxy-2,3-dihydro-1H-pyrido[2,3-b][1,4]oxazin-1-yl)-2-((2R,5R)-5-methyl-2-(((R)-3-methylmorpholino)methyl)piperazin-1-yl)ethan-1-one], the IC50 (commonly the concentration that inhibits the measured activity by half) turned out to be 0.85 nM in assay [1], 1.3 nM in assay [2] and 10 nM in assay [3].

For `CC1CN(C(=O)CN2C[C@@H](C)NC[C@@H]2CN2CCOC[C@H]2C)c2cc(Cc3ccc(F)cc3)cnc2O1` (stereo partly drawn) [Compound 10, 1-(7-(4-fluorobenzyl)-3-methyl-2,3-dihydro-1H-pyrido[2,3-b][1,4]oxazin-1-yl)-2-((2R,5R)-5-methyl-2-(((R)-3-methylmorpholino)methyl)piperazin-1-yl)ethan-1-one], the IC50 was found to be 14 nM in assay [1], 52 nM in assay [2] and 264 nM in assay [3].

Regarding `CC1CN(C(=O)CN2C[C@@H](C)NC[C@@H]2CN2CCOC[C@H]2C)c2cc(Cc3ccc(F)cc3)c(Br)nc2O1` (stereo partly drawn) [Compound 11, 1-(6-bromo-7-(4-fluorobenzyl)-3-methyl-2,3-dihydro-1H-pyrido[2,3-b][1,4]oxazin-1-yl)-2-((2R,5R)-5-methyl-2-(((R)-3-methylmorpholino)methyl)piperazin-1-yl)ethan-1-one], the IC50 in assay [1] was determined as 8 nM; in assay [2], 17 nM; in assay [3], 220 nM.

As to `C[C@@H]1CN(CC(=O)N2CC(C)(C)Oc3nc(Br)c(Cc4ccc(F)cc4)cc32)[C@@H](CN2CCOC[C@H]2C)CN1` [Compound 12, 1-(6-bromo-7-(4-fluorobenzyl)-3,3-dimethyl-2,3-dihydro-1H-pyrido[2,3-b][1,4]oxazin-1-yl)-2-((2R,5R)-5-methyl-2-(((R)-3-methylmorpholino)methyl)piperazin-1-yl)ethan-1-one], the IC50 in assay [1] stood at 16 nM; in assay [2], 44 nM; in assay [3], 561 nM.

As to `C[C@@H]1CN(CC(=O)N2CCOc3ncc(Cc4ccc(F)cc4)cc32)[C@@H](CN2C[C@@H]3C[C@H]2CO3)CN1` [Compound 13, 2-((2R,5R)-2-(((1S,45)-2-oxa-5-azabicyclo[2.2.1]heptan-5-yl)methyl)-5-methylpiperazin-1-yl)-1-(7-(4-fluorobenzyl)-2,3-dihydro-1H-pyrido[2,3-b][1,4]oxazin-1-yl)ethan-1-one], the IC50 in assay [1] stood at 1.02 nM; in assay [2], 1.5 nM; in assay [3], 24 nM.

With `C[C@@H]1CN(CC(=O)N2CCOc3ncc(Cc4ccc(F)cc4)cc32)[C@@H](CN2C[C@H]3C[C@@H]2CO3)CN1` [Compound 14], the IC50 was 3.6 nM in assay [1], 9.8 nM in assay [2] and 122 nM in assay [3].

With `C[C@@H]1CN(CC(=O)N2CCOc3ncc(Cc4ccc(F)cc4)cc32)[C@@H](CN2C(=O)OC[C@H]2C(F)F)CN1` [Compound 15, (S)-4-(difluoromethyl)-3-(((2R,5R)-1-(2-(7-(4-fluorobenzyl)-2,3-dihydro-1H-pyrido[2,3-b][1,4]oxazin-1-yl)-2-oxoethyl)-5-methylpiperazin-2-yl)methyl)oxazolidin-2-one], the IC50 in assay [1] came to 3.4 nM; in assay [2], 6.9 nM; in assay [3] it was 196 nM.

As for `C[C@@H]1CN(CC(=O)N2CCOc3ncc(Cc4ccc(F)cc4)cc32)[C@@H](CN2[C@H](C)COC[C@H]2C)CN1` [Compound 16, 2-((2R,5R)-2-(((3R,5R)-3,5-dimethylmorpholino)methyl)-5-methylpiperazin-1-yl)-1-(7-(4-fluorobenzyl)-2,3-dihydro-1H-pyrido[2,3-b][1,4]oxazin-1-yl)ethan-1-one], the IC50 in assay [1] stood at 0.34 nM; in assay [2], 0.85 nM; in assay [3], 8.4 nM.
